Results from patent US7109193B2, “Tricyclic diazepines tocolytic oxytocin receptor antagonists” (Wyeth, priority 2001, dated 2006).

Molecular target: T1, human vasopressin V2 receptor subtype (Homo sapiens, UniProt P30518)
T1 construct: host or cells: CHO cells (pZeoSV vector)
Experiment: Vasopressin binding in Chinese Hamster Ovary cell membranes expressing human vasopressin V2 subtype receptors
Conditions: 100 nM, CHO cell membranes, [3H]arginine vasopressin, values without parentheses
Procedure, shortened: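 Radioligand displacement on membranes from CHO cells stably expressing human V2 receptor, 25 to 50 μg protein/well, in 50 mM Tris-HCl pH 7.4 with MgCl2, BSA and protease inhibitors. [^3H]arginine vasopressin (8 nM working solution) incubated 60 min at room temperature; bound label measured by filtration and scintillation counting.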

T1 sequence (P30518 whole entry): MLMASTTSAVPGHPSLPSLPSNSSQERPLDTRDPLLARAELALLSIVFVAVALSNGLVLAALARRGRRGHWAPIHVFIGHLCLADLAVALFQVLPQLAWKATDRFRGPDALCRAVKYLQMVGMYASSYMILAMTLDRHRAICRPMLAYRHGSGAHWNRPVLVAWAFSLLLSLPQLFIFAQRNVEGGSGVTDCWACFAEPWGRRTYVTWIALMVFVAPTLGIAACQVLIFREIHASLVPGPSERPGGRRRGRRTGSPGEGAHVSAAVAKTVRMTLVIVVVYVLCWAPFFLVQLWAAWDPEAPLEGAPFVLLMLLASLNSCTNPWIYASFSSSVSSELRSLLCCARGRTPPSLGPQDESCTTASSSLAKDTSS

Row | Structure (SMILES) | inhibition at 0.1 µM | V2 % inhibition @ 100 nM (0.1 µM)
1 | Cc1ccccc1-c1ccc(C(=O)N2Cc3ccc(C(=O)N4CCCN(C)CC4)n3Cc3ccccc32)cc1 [Example 65, {10-[(2′-Methyl[1,1′-biphenyl]-4-yl)carbonyl]-10,11-dihydro-5H-pyrrolo[2,1-c][1,4]benzodiazepin-3-yl}(4-methyl-1,4-diazepan-1-yl)methanone] | 6% | 
2 | COc1ccccc1-c1ccc(C(=O)N2Cc3ccc(C(=O)N[C@@H]4CN5CCC4CC5)n3Cc3ccccc32)cc1OC [Example 300, N-[(3S)-1-Azabicyclo[2.2.2]oct-3-yl]-10-[(2,2′-dimethoxy[1,1′-biphenyl]-4-yl)carbonyl]-10,11-dihydro-5H-pyrrolo[2,1-c][1,4]benzodiazepine-3-carboxamide] | 19% | 
3 | COc1ccccc1-c1ccc(C(=O)N2Cc3ccc(C(=O)N[C@@H]4CN5CCC4CC5)n3Cc3ccccc32)cc1C [Example 295, N-[(3S)-1-Azabicyclo[2.2.2]oct-3-yl]-10-[(2′-methoxy-2-methyl[1,1′-biphenyl]-4-yl)carbonyl]-10,11-dihydro-5H-pyrrolo[2,1-c][1,4]benzodiazepine-3-carboxamide] | 22% | 
4 | Cc1ccccc1-c1ccc(C(=O)N2Cc3ccc(C(=O)N4CCCN(C)CC4)n3Cc3ccccc32)cc1C [Example 63, {10-[(2,2′-Dimethyl[1,1′-biphenyl]-4-yl)carbonyl]-10,11-dihydro-5H-pyrrolo[2,1-c][1,4]benzodiazepin-3-yl}(4-methyl-1,4-diazepan-1-yl)methanone] | 9% | 
5 | Cc1ccccc1-c1ccc(C(=O)N2Cc3ccc(C(=O)N4CCN(CCCN(C)C)CC4)n3Cc3ccccc32)cc1C [Example 247, {4-[3-(Dimethylamino)propyl]-1-piperazinyl}{10-[(2,2′-dimethyl[1,1′-biphenyl]-4-yl)carbonyl]-10,11-dihydro-5H-pyrrolo[2,1-c][1,4]benzodiazepin-3-yl}methanone] | 21% | 
6 | COc1cccc(-c2cc(OC)c(C(=O)N3Cc4ccc(C(=O)N5CCCN(C)CC5)n4Cc4ccccc43)cc2Cl)c1 [Example 67, {10-[(6-Chloro-3,3′-dimethoxy[1,1′-biphenyl]-4-yl)carbonyl]-10,11-dihydro-5H-pyrrolo[2,1-c][1,4]benzodiazepin-3-yl}(4-methyl-1,4-diazepan-1-yl)methanone] | 4% | 
7 | COc1cc(C(=O)N2Cc3ccc(C(=O)N4CCN(C)CC4)n3Cc3ccccc32)ccc1-c1ccccc1C [Example 53, {10-[(2-Methoxy-2′-methyl[1,1′-biphenyl]-4-yl)carbonyl]-10,11-dihydro-5H-pyrrolo[2,1-c][1,4]benzodiazepin-3-yl}(4-methyl-1-piperazinyl)methanone] | 23% | 
8 | COc1cc(C(=O)N2Cc3ccc(C(=O)N4CCN(CCCN(C)C)CC4)n3Cc3ccccc32)ccc1-c1ccccc1C [Example 250, {4-[3-(Dimethylamino)propyl]-1-piperazinyl}{10-[(2-methoxy-2′-methyl[1,1′-biphenyl]-4-yl)carbonyl]-10,11-dihydro-5H-pyrrolo[2,1-c][1,4]benzodiazepin-3-yl}methanone] | -10% | 
9 | COc1ccccc1-c1ccc(C(=O)N2Cc3ccc(C(=O)N4CCN(C)CC4)n3Cc3ccccc32)cc1OC [Example 56, {10-[(2,2′-Dimethoxy[1,1′-biphenyl]-4-yl)carbonyl]-10,11-dihydro-5H-pyrrolo[2,1-c][1,4]benzodiazepin-3-yl}(4-methyl-1-piperazinyl)methanone] | 27% | 
10 | COc1cccc(-c2cc(OC)c(C(=O)N3Cc4ccc(C(=O)N5CCN(C)CC5)n4Cc4ccccc43)cc2Cl)c1 [Example 54, {10-[(6-Chloro-3,3′-dimethoxy[1,1′-biphenyl]-4-yl)carbonyl]-10,11-dihydro-5H-pyrrolo[2,1-c][1,4]benzodiazepin-3-yl}(4-methyl-1-piperazinyl)methanone] | 7% | 
11 | Cc1cc(C(=O)N2Cc3ccc(C(=O)N4CCN(CCCN(C)C)CC4)n3Cc3ccccc32)ccc1-c1ccccc1C(F)(F)F [Example 257, {10-[(2-Methyl-2′-trifluoromethyl-[1,1′-biphenyl]-4-yl)carbonyl]-10,11-dihydro-5H-pyrrolo[2,1-c][1,4]benzodiazepin-3-yl}{4-[3-(dimethylamino)propyl]-1-piperazinyl}-methanone] |  | 16%
12 | Cc1ccccc1-c1ccc(C(=O)N2Cc3ccc(C(=O)NCCCN(C)C)n3Cc3ccccc32)cc1C [Example 73, N-[3-(Dimethylamino)propyl]-10-[(2,2′-dimethyl[1,1′-biphenyl]-4-yl)carbonyl]-10,11-dihydro-5H-pyrrolo[2,1-c][1,4]benzodiazepine-3-carboxamide] | 21% | 
13 | Cc1ccccc1-c1ccc(C(=O)N2Cc3ccc(C(=O)N4CCN(C)CC4)n3Cc3ccccc32)cc1C [Example 50, {10-[(2,2′-Dimethyl[1,1′-biphenyl]-4-yl)carbonyl]-10,11-dihydro-5H-pyrrolo[2,1-c][1,4]benzodiazepin-3-yl}(4-methyl-1-piperazinyl)methanone] | 15% | 
14 | COc1cc(C(=O)N2Cc3ccc(C(=O)N4CCCN(C)CC4)n3Cc3ccccc32)ccc1-c1ccccc1C [Example 66, {10-[(2-Methoxy-2′-methyl[1,1′-biphenyl]-4-yl)carbonyl]-10,11-dihydro-5H-pyrrolo[2,1-c][1,4]benzodiazepin-3-yl}(4-methyl-1,4-diazepan-1-yl)methanone] | 20% | 
15 | COc1cc(C(=O)N2Cc3ccc(C(=O)N4CCN(C)CC4)n3Cc3ccccc32)ccc1-c1cccc2ccccc12 [Example 55, {10-[3-Methoxy-4-(1-naphthyl)benzoyl]-10,11-dihydro-5H-pyrrolo[2,1-c][1,4]benzodiazepin-3-yl}(4-methyl-1-piperazinyl)methanone] | 30% | 
16 | CC(C)N1CCN(C(=O)c2ccc3n2Cc2ccccc2N(C(=O)c2ccc(-c4cccc5ccccc45)cc2Cl)C3)CC1 [Example 243, {10-[2-Chloro-4-(1-naphthyl)benzoyl]-10,11-dihydro-5H-pyrrolo[2,1-c][1,4]benzodiazepin-3-yl}(4-isopropyl-1-piperazinyl)methanone] | 21% | 

Second part, the compound after the results:

Row | inhibition at 0.1 µM | V2 % inhibition @ 100 nM (0.1 µM) | Structure (SMILES)
17 | 27% |  | COc1ccccc1-c1ccc(C(=O)N2Cc3ccc(C(=O)N[C@@H](Cc4c[nH]cn4)C(N)=O)n3Cc3ccccc32)cc1OC [Example 286, N-[(1S)-2-Amino-1-(1H-imidazol-4-ylmethyl)-2-oxoethyl]-10-[(2,2′-dimethoxy[1,1′-biphenyl]-4-yl)carbonyl]-10,11-dihydro-5H-pyrrolo[2,1-c][1,4]benzodiazepine-3-carboxamide]
18 | 0% |  | COc1cc(C(=O)N2Cc3ccc(C(=O)N4CCN(C)CC4)n3Cc3ccccc32)ccc1-n1c(C)ccc1C [Example 306, {10-[4-(2,5-Dimethyl-1H-pyrrol-1-yl)-3-methoxybenzoyl]-10,11-dihydro-5H-pyrrolo[2,1-c][1,4]benzodiazepin-3-yl}(4-methyl-1-piperazinyl)methanone]
19 | 19% |  | COc1cc(-c2ccccc2C)c(Cl)cc1C(=O)N1Cc2ccc(C(=O)N[C@@H](CCCCNC(=O)OC(C)(C)C)C(N)=O)n2Cc2ccccc21 [Example 304, tert-Butyl (5S)-6-amino-5-[({10-[(6-chloro-3-methoxy-2′-methyl[1,1′-biphenyl]-4-yl)carbonyl]-10,11-dihydro-5H-pyrrolo[2,1-c][1,4]benzodiazepin-3-yl}carbonyl)amino]-6-oxohexylcarbamate]
20 | 5% |  | COc1cc(C(=O)N2Cc3ccc(C(=O)n4ccnc4)n3Cc3ccccc32)ccc1-c1cccc2ccccc12 [Example 291, 1H-Imidazol-1-yl-{10-[3-methoxy-4-(1-naphthyl)benzoyl]-10,11-dihydro-5H-pyrrolo[2,1-c][1,4]benzodiazepin-3-yl}methanone]
21 | -6% |  | COc1cc(C(=O)N2Cc3ccc(C(=O)n4ccnc4)n3Cc3ccccc32)ccc1-c1ccccc1C [Example 290, 1H-Imidazol-1-yl-{10-[(2-methoxy-2′-methyl[1,1′-biphenyl]-4-yl)carbonyl]-10,11-dihydro-5H-pyrrolo[2,1-c][1,4]benzodiazepin-3-yl}methanone]
22 | 3% |  | COc1cc(C(=O)N2Cc3ccc(C(=O)NCCCn4ccnc4)n3Cc3ccccc32)ccc1-n1c(C)ccc1C [Example 312, 10-[4-(2,5-Dimethyl-1H-pyrrol-1-yl)-3-methoxybenzoyl]-N-[3-(1H-imidazol-1-yl)propyl]-10,11-dihydro-5H-pyrrolo[2,1-c][1,4]benzodiazepine-3-carboxamide]
23 | 1% |  | COc1cc(C(=O)N2Cc3ccc(C(=O)NCCCN(C)C)n3Cc3ccccc32)ccc1-n1c(C)ccc1C [Example 308, N-[3-(Dimethylamino)propyl]-10-[4-(2,5-dimethyl-1H-pyrrol-1-yl)-3-methoxybenzoyl]-10,11-dihydro-5H-pyrrolo[2,1-c][1,4]benzodiazepine-3-carboxamide]
24 | 12% |  | Cc1cc(C(=O)N2Cc3ccc(C(=O)N[C@@H](Cc4c[nH]cn4)C(N)=O)n3Cc3ccccc32)ccc1-c1ccccc1C(F)(F)F [Example 284, N-[(1S)-2-Amino-1-(1H-imidazol-4-ylmethyl)-2-oxoethyl]-10-{[2-methyl-2′-(trifluoromethyl)[1,1′-biphenyl]-4-yl]carbonyl}-10,11-dihydro-5H-pyrrolo[2,1-c][1,4]benzodiazepine-3-carboxamide]
25 | 17% |  | COc1cccc(-c2cc(OC)c(C(=O)N3Cc4ccc(C(=O)N[C@@H](CCCCNC(=O)OC(C)(C)C)C(N)=O)n4Cc4ccccc43)cc2Cl)c1 [Example 302, tert-Butyl (5S)-6-amino-5-[({10-[(6-chloro-3,3′-dimethoxy[1,1′-biphenyl]-4-yl)carbonyl]-10,11-dihydro-5H-pyrrolo[2,1-c][1,4]benzodiazepin-3-yl}carbonyl)amino]-6-oxohexylcarbamate]
